Experimental data as given in ChEMBL document CHEMBL1158340, “Organoiodine (III)-mediated synthesis of 3-aryl/heteroaryl-5,7-dimethyl-1,2,4-triazolo[4,3-c]pyrimidines as antibacterial agents” (2009).
In brackets after ≈: the same amount, converted by molar mass. Activity calls are given as the source filed them. No cut-off for these calls is given here.

Key:
Assay type in all cases: functional
Bacillus subtilis [1] = assay: Antibacterial activity against Bacillus subtilis MTCC 8509 at 10 ug/mL by agar well diffusion method; details: for zone of inhibition at 10 µg/mL: read-out: DIZ
Bacillus subtilis [2] = assay: Antibacterial activity against Bacillus subtilis MTCC 8509 at 50 ug/mL by agar well diffusion method; details: for zone of inhibition at 50 µg/mL: read-out: DIZ
Bacillus subtilis [3] = assay: Antibacterial activity against Bacillus subtilis MTCC 8509 at 100 ug/mL by agar well diffusion method; details: read-out: DIZ
[4] = system: Geobacillus stearothermophilus; assay: Antibacterial activity against Bacillus stearothermophilus MTCC 8508 at 10 ug/mL by agar well diffusion method; details: for zone of inhibition at 10 µg/mL: read-out: DIZ
[5] = system: Geobacillus stearothermophilus; assay: Antibacterial activity against Bacillus stearothermophilus MTCC 8508 at 50 ug/mL by agar well diffusion method; details: for zone of inhibition at 50 µg/mL: read-out: DIZ
[6] = system: Geobacillus stearothermophilus; assay: Antibacterial activity against Bacillus stearothermophilus MTCC 8508 at 100 ug/mL by agar well diffusion method; details: read-out: DIZ
Escherichia coli [7] = assay: Antibacterial activity against Escherichia coli MTCC 51 at 10 ug/mL by agar well diffusion method; details: for zone of inhibition at 10 µg/mL: read-out: DIZ
Escherichia coli [8] = assay: Antibacterial activity against Escherichia coli MTCC 51 at 50 ug/mL by agar well diffusion method; details: for zone of inhibition at 50 µg/mL: read-out: DIZ
Escherichia coli [9] = assay: Antibacterial activity against Escherichia coli MTCC 51 at 100 ug/mL by agar well diffusion method; details: read-out: DIZ
Pseudomonas putida [10] = assay: Antibacterial activity against Pseudomonas putida MTCC 121 at 10 ug/mL by agar well diffusion method; details: for zone of inhibition at 10 µg/mL: read-out: DIZ
Pseudomonas putida [11] = assay: Antibacterial activity against Pseudomonas putida MTCC 121 at 50 ug/mL by agar well diffusion method; details: read-out: DIZ
Pseudomonas putida [12] = assay: Antibacterial activity against Pseudomonas putida MTCC 121 at 100 ug/mL by agar well diffusion method; details: read-out: DIZ
Bacillus subtilis [13] = assay: Antibacterial activity against Bacillus subtilis MTCC 8509 after 24 hrs; details: MTCC 8509, 24 h
[14] = system: Geobacillus stearothermophilus; assay: Antibacterial activity against Bacillus stearothermophilus MTCC 8508 after 24 hrs; details: MTCC 8508, 24 h
Escherichia coli [15] = assay: Antibacterial activity against Escherichia coli MTCC 51 after 24 hrs; details: MTCC 51, 24 h
Pseudomonas putida [16] = assay: Antibacterial activity against Pseudomonas putida MTCC 121 after 24 hrs; details: MTCC 121, 24 h

Row | Compound | MIC (Bacillus subtilis [13]) [µg/mL] | MIC [14] [µg/mL] | MIC (Escherichia coli [15]) [µg/mL] | MIC (Pseudomonas putida [16]) [µg/mL] | Activity (Bacillus subtilis [1]) | zone of inhibition at 50 µg/mL (Bacillus subtilis [2]) [mm] | zone of inhibition at 100 µg/mL (Bacillus subtilis [3]) [mm] | zone of inhibition at 100 µg/mL [6] [mm] | zone of inhibition at 100 µg/mL (Escherichia coli [9]) [mm] | Activity (Pseudomonas putida [10]) | zone of inhibition at 50 µg/mL (Pseudomonas putida [11]) [mm] | zone of inhibition at 100 µg/mL (Pseudomonas putida [12]) [mm] | zone of inhibition at 10 µg/mL (Bacillus subtilis [1]) [mm] | zone of inhibition at 10 µg/mL [4] [mm] | zone of inhibition at 50 µg/mL [5] [mm] | zone of inhibition at 10 µg/mL (Escherichia coli [7]) [mm] | zone of inhibition at 50 µg/mL (Escherichia coli [8]) [mm] | zone of inhibition at 10 µg/mL (Pseudomonas putida [10]) [mm] | also measured
1 | Cc1cc2nnc(-c3ccccc3)n2c(C)n1 | > 250 | > 250 | > 250 | > 250 | inactive | 8.34 | 13.3 | 10.7 | 11.3 | inactive | 8.33 | 12.7 |  |  |  |  |  |  | Activity [4]: inactive; Activity [5]: inactive; Activity (Escherichia coli [7]): inactive; Activity (Escherichia coli [8]): inactive
2 | COc1ccc(-c2nnc3cc(C)nc(C)n23)cc1 | 8 (≈ 31.5 µM) | 16 (≈ 62.9 µM) | 16 (≈ 62.9 µM) | 16 (≈ 62.9 µM) |  | 39.7 | 59.7 | 41.3 | 40.7 |  | 20.3 | 40.7 | 27.3 | 12.3 | 20.7 | 12.3 | 21.3 | 11.7 | 
3 | COc1cc(O)ccc1-c1nnc2cc(C)nc(C)n12 | 8 (≈ 29.6 µM) | 4 (≈ 14.8 µM) | 4 (≈ 14.8 µM) | 2 (≈ 7.4 µM) |  | 42.7 | 61.7 | 66.3 | 66.7 |  | 49.3 | 72.7 | 27.3 | 30.7 | 46.7 | 29.3 | 46.3 | 32.7 | 
4 | Cc1cc2nnc(-c3ccc(Cl)cc3Cl)n2c(C)n1 | 4 (≈ 13.6 µM) | 4 (≈ 13.6 µM) | 1 (≈ 3.41 µM) | 4 (≈ 13.6 µM) |  | 47.7 | 67.3 | 66.3 | 75.3 |  | 49.7 | 67.7 | 30.7 | 29.7 | 48.3 | 37.3 | 63.7 | 29.3 | 
5 | Cc1cc2nnc(-c3cccs3)n2c(C)n1 | > 250 | 64 (≈ 278 µM) | 64 (≈ 278 µM) | > 250 | inactive | 8.34 | 13.7 | 25.7 | 26.3 | inactive | 8.33 | 12.3 |  | 9.74 | 16.7 | 10.3 | 18.7 |  | 
6 | Cc1cc2nnc(-c3ccc(Br)cc3)n2c(C)n1 | 8 (≈ 26.4 µM) | 8 (≈ 26.4 µM) | 16 (≈ 52.8 µM) | 4 (≈ 13.2 µM) |  | 40.7 | 59.3 | 60.7 | 47.3 |  | 48.7 | 66.7 | 27.7 | 26.7 | 41.7 | 23.3 | 31.7 | 28.3 | 
7 | O=C(N[C@H](CO)[C@H](O)c1ccc([N+](=O)[O-])cc1)C(Cl)Cl [CHLORAMPHENICOL] | 2 (≈ 6.19 µM) | 2 (≈ 6.19 µM) | 4 (≈ 12.4 µM) | 2 (≈ 6.19 µM) |  | 57.2 | 74.2 | 77.2 | 75.4 |  | 53.4 | 71.2 | 36.3 | 35.3 | 53.2 | 30.3 | 50.4 | 29.3 | 
8 | Cc1cc2nnc(-c3ccc(Cl)cc3)n2c(C)n1 | > 250 | 125 (≈ 483 µM) | > 250 | > 250 | inactive |  | 11.3 | 18.7 | 10.7 | inactive | 8.33 | 14.6 |  |  | 11.8 |  |  |  | Activity (Bacillus subtilis [2]): inactive; Activity [4]: inactive; Activity (Escherichia coli [7]): inactive; Activity (Escherichia coli [8]): inactive
9 | CN[C@@H]1[C@H](O[C@H]2[C@H](O[C@H]3[C@H](O)[C@@H](O)[C@H](N=C(N)N)[C@@H](O)[C@@H]3N=C(N)N)O[C@@H](C)[C@]2(O)C=O)O[C@@H](CO)[C@H](O)[C@H]1O [STREPTOMYCIN] | 2 (≈ 3.44 µM) | 2 (≈ 3.44 µM) | 4 (≈ 6.88 µM) | 4 (≈ 6.88 µM) |  | 57.4 | 73.2 | 67.2 | 69.4 |  | 48.2 | 72.2 | 36.4 | 33.2 | 49.2 | 26.4 | 49.4 | 38.2 | 

More lines, main results first:

Row | MIC (Bacillus subtilis [13]) [µg/mL] | MIC [14] [µg/mL] | MIC (Escherichia coli [15]) [µg/mL] | MIC (Pseudomonas putida [16]) [µg/mL] | Compound | Activity (Bacillus subtilis [1]) | zone of inhibition at 50 µg/mL (Bacillus subtilis [2]) [mm] | zone of inhibition at 100 µg/mL (Bacillus subtilis [3]) [mm] | zone of inhibition at 100 µg/mL [6] [mm] | zone of inhibition at 100 µg/mL (Escherichia coli [9]) [mm] | Activity (Pseudomonas putida [10]) | zone of inhibition at 50 µg/mL (Pseudomonas putida [11]) [mm] | zone of inhibition at 100 µg/mL (Pseudomonas putida [12]) [mm] | zone of inhibition at 10 µg/mL (Bacillus subtilis [1]) [mm] | zone of inhibition at 10 µg/mL [4] [mm] | zone of inhibition at 50 µg/mL [5] [mm] | zone of inhibition at 10 µg/mL (Escherichia coli [7]) [mm] | zone of inhibition at 50 µg/mL (Escherichia coli [8]) [mm] | zone of inhibition at 10 µg/mL (Pseudomonas putida [10]) [mm] | also measured
10 | 16 (≈ 66 µM) | 16 (≈ 66 µM) | 32 (≈ 132 µM) | 32 (≈ 132 µM) | Cc1cc2nnc(-c3ccc(F)cc3)n2c(C)n1 |  | 22.3 | 41.7 | 41.8 | 26.4 |  | 15.3 | 23.2 | 13.7 | 10.1 | 23.4 | 11.3 | 14.3 | 9.67 | 
11 | > 250 | > 250 | 125 (≈ 440 µM) | > 250 | COc1ccc(OC)c(-c2nnc3cc(C)nc(C)n23)c1 | inactive |  | 11.3 | 13.7 | 19.3 | inactive | 9.66 | 13.7 |  |  | 8.33 |  | 10.7 |  | Activity (Bacillus subtilis [2]): inactive; Activity [4]: inactive; Activity (Escherichia coli [7]): inactive
12 | 4 (≈ 17.8 µM) | 8 (≈ 35.5 µM) | 8 (≈ 35.5 µM) | 2 (≈ 8.88 µM) | Cc1cc2nnc(-c3cccnc3)n2c(C)n1 |  | 46.3 | 65.7 | 56.3 | 57.3 |  | 59.3 | 69.7 | 29.3 | 25.3 | 39.7 | 25.7 | 39.3 | 36.7 | 
13 | 16 (≈ 67.1 µM) | 32 (≈ 134 µM) | 16 (≈ 67.1 µM) | 8 (≈ 33.6 µM) | Cc1ccc(-c2nnc3cc(C)nc(C)n23)cc1 |  | 21.3 | 42.1 | 30.3 | 40.2 |  | 40.3 | 59.7 | 12.3 | 9.74 | 19.7 | 11.7 | 22.2 | 26.7 | 
14 | 250 (≈ 928 µM) | > 250 | 250 (≈ 928 µM) | 125 (≈ 464 µM) | Cc1cc2nnc(-c3ccc([N+](=O)[O-])cc3)n2c(C)n1 | inactive | 9.66 | 14.3 | 16.7 | 13.7 | inactive | 12.3 | 19.7 |  |  | 10.3 |  | 8.33 |  | Activity [4]: inactive; Activity (Escherichia coli [7]): inactive
